Assay results taken from patent US6605427B2, “Assay for detection of viral fusion inhibitors” (priority 2000, dated 2003).
Read-outs that look alike come from different tables or passages of the source.

Target: HIV-1 gp41 core structure (six-helix bundle) formation (Human immunodeficiency virus type 1 group M subtype B, UniProt P04578)
Experimental: Two days following transfection, intact 293T cells transiently expressing the HIV-1 HXB2 envelope are incubated in the presence of the test compound. At the end of 1 h, 2 μg of soluble CD4 (sCD4) or a cell line expressing CD4 is added. At the end of an additional 1 h, the monoclonal antibody against the six-helix bundle structure is added at a concentration of 10 μg/ml and the mixture is allowed to incubate at 25° C. for 3 hr. Following this incubation the cells are washed 4 times with PBS and lysed with 1 ml lysis buffer (1% Triton X-100, 150 mM NaCl, and 50 mM Tris-Cl pH 7.4). […] Immunoprecipitated complexes are analyzed by 10% SDS-Page gel, transferred to nitrocellulose and immunoblotted with the anti-gp41 monoclonal antibody Chessie 8 (obtained from NIH AIDS Research and Reference Reagent Program) and detected by chemiluminescence and autoradiography.
The ability of the test compound to disrupt these critical conformational changes is assessed by characterizing the formation of the gp41 core structure. […]
The assay is a modified form of an immunoprecipitation (IP) assay and involves incubating the test compound with intact, virus-infected cells expressing the gp120/gp41 envelope complex on their surface. […] In these experiments the ability of a test compound to disrupt gp41 conformational changes was measured by determining its effect of core structure formation.

`C=C(C)[C@@H]1CC[C@]2(C(=O)O)CC[C@]3(C)[C@H](CC[C@@H]4[C@@]5(C)CC[C@H](OC(=O)CC(C)(C)C(=O)O)C(C)(C)[C@@H]5CC[C@]43C)[C@@H]12` [DSB, dimethylsuccinylbetulinic acid] was tested, and the “amount of gp41 immunoprecipitated following sCD4 triggering” value (100 μg/ml DSB (FIG. 8 lane 3)) was “further reduced to a level nearly identical to that recovered in the absence of CD4 triggering” and the “amount of gp41 immunoprecipitated following sCD4 triggering” value (10 Mg/ml DSB (FIG. 8 lane 2) versus no test compound (lane 1)) was “significantly greater than the amount of gp41 immunoprecipitated in the presence of 10 Mg/ml DSB”.
